Measurements published in ChEMBL document CHEMBL6121023, “Discovery of proteolytically stable monocyte locomotion inhibitory factor peptide through systematic structural optimization” (Eur J Med Chem, 2025).
The source made the active and inactive calls. The calls are words filed in the database; no cut-off is given here. Positions of bridges follow the written chain, without caps; N, C: chain ends. Non-standard residues stand in square brackets, D forms with d. Residues, ends and D or L forms follow the SMILES beside them. ξ: configuration not given here. *: point of attachment. X1 = COCCOCCOCCOCCOCCOCCOCCC(=O)*; NMeQ = CN[C@@H](CCC(N)=O)C(=O)O; NMeN = CN[C@@H](CC(N)=O)C(=O)O; X2 = COCCOCCOCCOCCOCCC(=O)*; NMeC = CN[C@@H](CS)C(=O)O; NMeS = CN[C@@H](CO)C(=O)O; Heptanoyl = CCCCCCC(=O)*; Orn = NCCC[C@H](N)C(=O)O; ξNMeM = CNC(CCSC)C(=O)O; Pentanoyl = CCCCC(=O)*; ξM = CSCCC(N)C(=O)O

Tests used:
[1] = Cytotoxicity against mouse RAW264.7 cells assessed as cell viability at 1 microg/ml measured after 24 hrs by CCK-8 assay; format: toxicity, cell-based; conditions: at 1 µg/mL, read-out: Activity
RAW264.7 [2] = test: Antiinflammatory activity in LPS-induced mouse RAW264.7 cells assessed as inhibition of TNF-alpha expression at 1 microg/ml preincubated with compound for 24 hrs followed by LPS addition for 6 hrs by ELISA method; format: functional, cell-based; conditions: dose 1.0 µg/ml, time 30.0 hrs
RAW264.7 [3] = test: Antiinflammatory activity in LPS-induced mouse RAW264.7 cells assessed as […] in IL-1beta expression at 1 microg/ml preincubated with compound for 24 hrs followed by LPS addition for 6 hrs by ELISA method; format: functional, cell-based; conditions: dose 1.0 µg/ml, time 30.0 hrs
RAW264.7 [4] = test: Antiinflammatory activity in LPS-induced mouse RAW264.7 cells assessed as inhibition of IL-1beta expression at 1 microg/ml preincubated with compound for 24 hrs followed by LPS addition for 6 hrs by ELISA method; format: functional, cell-based; conditions: dose 1.0 µg/ml, time 30.0 hrs
RAW264.7 [5] = test: Antiinflammatory activity in LPS-induced mouse RAW264.7 cells assessed as inhibition of NO expression at 1 microg/ml preincubated with compound for 24 hrs followed by LPS addition for 6 hrs by DAF-FM diacetate probe based analysis; format: functional, cell-based; conditions: dose 1.0 µg/ml, time 30.0 hrs
Mus musculus = test: Anti-inflammatory activity against collagenase-induced osteoarthritis C57BL/6J mouse model assessed as improvement in cartilage thickness at 1 mg/kg, ip measured on day 14 by H and E staining based analysis; format: functional, organism-based; conditions: time 14.0 day
RAW264.7 [6] = test: Antiinflammatory activity in LPS-induced mouse RAW264.7 cells assessed as inhibition of NO generation at 1 microg/ml preincubated with compound for 24 hrs followed by LPS addition for 6 hrs by DAF-FM diacetate probe based analysis; format: functional, cell-based; conditions: dose 1.0 µg/ml
RAW264.7 [7] = test: Antiinflammatory activity in LPS-induced mouse RAW264.7 cells assessed as effect on TNF-alpha level at 1 microg/ml preincubated with compound for 24 hrs followed by LPS addition for 6 hrs by ELISA method; format: functional, cell-based; conditions: dose 1.0 µg/ml, time 30.0 hrs
RAW264.7 [8] = test: Antiinflammatory activity in LPS-induced mouse RAW264.7 cells assessed as effect on NO level at 1 microg/ml preincubated with compound for 24 hrs followed by LPS addition for 6 hrs by DAF-FM diacetate probe based analysis; format: functional, cell-based; conditions: dose 1.0 µg/ml, time 30.0 hrs
RAW264.7 [9] = test: Antiinflammatory activity in LPS-induced mouse RAW264.7 cells assessed as effect on IL-1beta level at 1 microg/ml preincubated with compound for 24 hrs followed by LPS addition for 6 hrs by ELISA method; format: functional, cell-based; conditions: dose 1.0 µg/ml, time 30.0 hrs
RAW264.7 [10] = test: Antiinflammatory activity in LPS-induced mouse RAW264.7 cells assessed as reduction in IL-1beta activity at 1 microg/ml preincubated with compound for 24 hrs followed by LPS addition for 6 hrs by ELISA method; format: functional, cell-based; conditions: dose 1.0 µg/ml, time 30.0 hrs

Row | Compound | viability at 24 h, 1 microg/ml [1] [%] | Activity (RAW264.7 [2]) | Activity (RAW264.7 [3]) | Activity (RAW264.7 [4]) | other results
1 | COCCOCCOCCOCCOCCSC[C@@H](NC(=O)[C@@H](CCC(N)=O)NC(=O)[C@H](N)CCSC)C(=O)N[C@H](CC(N)=O)C(=O)N[C@H](CO)C(N)=O | ~80 | Active | Active |  | 
2 | CSCC[C@@H](N)C(=O)N[C@H]1CC(=O)NCCCC[C@@H](C(=O)N[C@@H](CO)C(N)=O)NC(=O)[C@H](CS)NC1=O | ~80 |  |  | inactive | 
3 | CSCC[C@H](N)C(=O)N[C@H](CCC(N)=O)C(=O)N[C@@H](CS)C(=O)N[C@@H](CC(N)=O)C(=O)N[C@@H](CO)C(N)=O | ~80 | Active | inactive |  | Activity (RAW264.7 [5]): Active
4 | CSCC[C@H](N)C(=O)N[C@@H](CCC(N)=O)C(=O)N[C@@H](CS)C(=O)N[C@H](CC(N)=O)C(=O)N[C@@H](CO)C(N)=O | ~80 | Active | inactive |  | Activity (RAW264.7 [5]): Active
5 | CSCC[C@@H](N)C(=O)N[C@H]1CC(=O)NCCC[C@@H](C(=O)N[C@@H](CO)C(N)=O)NC(=O)[C@H](CS)NC1=O | ~80 |  |  | inactive | 
6 | COCCOCCOCCSC[C@@H](NC(=O)[C@@H](CCC(N)=O)NC(=O)[C@H](N)CCSC)C(=O)N[C@H](CC(N)=O)C(=O)N[C@H](CO)C(N)=O | ~80 | Active | Active |  | 
7 | COCCOCCOCCOCCOCCOCCOCCSC[C@@H](NC(=O)[C@@H](CCC(N)=O)NC(=O)[C@H](N)CCSC)C(=O)N[C@H](CC(N)=O)C(=O)N[C@H](CO)C(N)=O | 88.8 | Active | Active |  | Activity (Mus musculus): Active; Activity (RAW264.7 [6]): Active
8 | CSCC[C@@H](N)C(=O)N[C@@H](CCC(N)=O)C(=O)N[C@@H](CS)C(=O)N[C@@H](CC(N)=O)C(=O)N[C@@H](CO)C(N)=O | 86.8 | Active |  | Active | Activity (Mus musculus): Active; Activity (RAW264.7 [5]): Active
9 | CSCC[C@H](N)C(=O)N[C@@H](CCC(N)=O)C(=O)N[C@@H](CS)C(=O)N[C@@H](CC(N)=O)C(=O)N[C@H](CO)C(N)=O | ~80 | Active | inactive |  | Activity (RAW264.7 [5]): Active
10 | CSCC[C@H](N)C(=O)N[C@@H](CCC(N)=O)C(=O)N[C@H](CS)C(=O)N[C@@H](CC(N)=O)C(=O)N[C@@H](CO)C(N)=O | ~80 | Active |  | Active | Activity (RAW264.7 [5]): Active
11 | CSCC[C@H](NC(C)=O)C(=O)N[C@@H](CCC(N)=O)C(=O)N[C@@H](CS)C(=O)N[C@@H](CC(N)=O)C(=O)N[C@@H](CO)C(N)=O (Ac-MQCNS-NH2) | ~80 |  |  | Active | Activity (RAW264.7 [7]): Active; Activity (RAW264.7 [8]): Active; Activity (RAW264.7 [9]): Active
12 | CSCC[C@H](N)C(=O)N[C@H]1CCC(=O)NCCCC[C@@H](C(=O)N[C@@H](CO)C(N)=O)NC(=O)[C@H](CS)NC1=O (H-MECKS-NH2; lactam 2-4) | ~80 |  |  | inactive | 
13 | CSCC[C@H](N)C(=O)N[C@H]1CCC(=O)NCCC[C@@H](C(=O)N[C@@H](CO)C(N)=O)NC(=O)[C@H](CS)NC1=O (H-MEC[Orn]S-NH2; lactam 2-4) | ~80 |  |  | inactive | 
14 | CSCC[C@H](N)C(=O)N[C@H]1CCCCNC(=O)C[C@@H](C(=O)N[C@@H](CO)C(N)=O)NC(=O)[C@H](CS)NC1=O (H-MKCDS-NH2; lactam 2-4) | ~80 | inactive |  | Active | 
15 | CSCC[C@H](N)C(=O)N[C@H]1CCCCNC(=O)CC[C@@H](C(=O)N[C@@H](CO)C(N)=O)NC(=O)[C@H](CS)NC1=O (H-MKCES-NH2; lactam 2-4) | ~80 |  |  | Active | Activity (RAW264.7 [6]): inactive
16 | CSCC[C@H](N)C(=O)N[C@H]1CCCNC(=O)C[C@@H](C(=O)N[C@@H](CO)C(N)=O)NC(=O)[C@H](CS)NC1=O (H-M[Orn]CDS-NH2; lactam 2-4) | ~80 |  |  | Active | 
17 | CSCC[C@H](N)C(=O)N[C@H]1CCCNC(=O)CC[C@@H](C(=O)N[C@@H](CO)C(N)=O)NC(=O)[C@H](CS)NC1=O (H-M[Orn]CES-NH2; lactam 2-4) | 81.9 |  |  | Active | Activity (Mus musculus): Active
18 | CSCCC(N)C(=O)N[C@@H](CCC(N)=O)C(=O)N[C@@H](CS)C(=O)N[C@@H](CC(N)=O)C(=O)N(C)[C@@H](CO)C(N)=O (some centres not stated) (H-[ξM]QCN[NMeS]-NH2) | ~80 | Active | Active |  | Activity (RAW264.7 [6]): inactive
19 | CSCCC(N)C(=O)N[C@@H](CCC(N)=O)C(=O)N[C@@H](CS)C(=O)N(C)[C@@H](CC(N)=O)C(=O)N[C@@H](CO)C(N)=O (some centres not stated) (H-[ξM]QC[NMeN]S-NH2) | ~80 | Active | Active |  | Activity (RAW264.7 [6]): inactive
20 | CSCCC(N)C(=O)N[C@@H](CCC(N)=O)C(=O)N(C)[C@@H](CS)C(=O)N[C@@H](CC(N)=O)C(=O)N[C@@H](CO)C(N)=O (some centres not stated) (H-[ξM]Q[NMeC]NS-NH2) | ~80 | Active | Active |  | Activity (RAW264.7 [6]): inactive
21 | CSCCC(N)C(=O)N(C)[C@@H](CCC(N)=O)C(=O)N[C@@H](CS)C(=O)N[C@@H](CC(N)=O)C(=O)N[C@@H](CO)C(N)=O (some centres not stated) (H-[ξM][NMeQ]CNS-NH2) | 82.9 | Active | Active |  | Activity (Mus musculus): Active; Activity (RAW264.7 [6]): Active
22 | CNC(CCSC)C(=O)N[C@@H](CCC(N)=O)C(=O)N[C@@H](CS)C(=O)N[C@@H](CC(N)=O)C(=O)N[C@@H](CO)C(N)=O (some centres not stated) (H-[ξNMeM]QCNS-NH2) | ~80 | Active | Active |  | Activity (RAW264.7 [6]): inactive
23 | CCCCCCC(=O)N[C@@H](CCSC)C(=O)N[C@@H](CCC(N)=O)C(=O)N[C@@H](CS)C(=O)N[C@@H](CC(N)=O)C(=O)N[C@@H](CO)C(N)=O (Heptanoyl-MQCNS-NH2) | ~80 |  |  | Active | Activity (RAW264.7 [7]): Active; Activity (RAW264.7 [8]): Active; Activity (RAW264.7 [9]): Active
24 | CCCCC(=O)N[C@@H](CCSC)C(=O)N[C@@H](CCC(N)=O)C(=O)N[C@@H](CS)C(=O)N[C@@H](CC(N)=O)C(=O)N[C@@H](CO)C(N)=O (Pentanoyl-MQCNS-NH2) | ~80 |  |  | Active | Activity (RAW264.7 [7]): Active; Activity (RAW264.7 [8]): Active; Activity (RAW264.7 [9]): Active
25 | COCCOCCOCCOCCOCCOCCOCCC(=O)N[C@@H](CCSC)C(=O)N[C@@H](CCC(N)=O)C(=O)N[C@@H](CS)C(=O)N[C@@H](CC(N)=O)C(=O)N[C@@H](CO)C(N)=O (X1-MQCNS-NH2) | ~80 |  |  | Active | Activity (RAW264.7 [7]): Active; Activity (RAW264.7 [8]): Active; Activity (RAW264.7 [9]): Active
26 | COCCOCCOCCOCCOCCC(=O)N[C@@H](CCSC)C(=O)N[C@@H](CCC(N)=O)C(=O)N[C@@H](CS)C(=O)N[C@@H](CC(N)=O)C(=O)N[C@@H](CO)C(N)=O (X2-MQCNS-NH2) | ~80 |  |  |  | Activity (RAW264.7 [7]): Active; Activity (RAW264.7 [10]): Active; Activity (RAW264.7 [8]): Active; Activity (RAW264.7 [9]): Active
